Reference: US8211924B2, “1-(azolin-2-yl)amino-1,2-diphenylethane compounds for combating animal pests” (BASF SE, priority 2007, dated 2012)
Like-named read-outs stand apart in the source and are kept apart here.

Columns and labels:
Assay in all cases: whole plant or invertebrate
Assay type in all cases: in vivo
Silverleaf Whitefly = details: Bemisia argentifolii; for mortality at 10 ppm: concentration 10 ppm; for mortality at 100 ppm: concentration 100 ppm
Method: Selected cotton plants were grown to the cotyledon state (one plant per pot). The cotyledons were dipped into the test solution to provide complete coverage of the foliage and placed in a well-vented area to dry. […] The tip, containing the collected insects, was then gently inserted into the soil containing the treated plant, allowing insects to crawl out of the tip to reach the foliage for feeding. The cups were covered with a re-usable screened lid (150 micron mesh polyester screen PeCap from Tetko Inc). Test plants were maintained in the holding room at about 25° C. and 20-40% relative humid-ity for 3 days avoiding direct exposure to the fluorescent light (24 hour photoperiod) to prevent trapping of heat inside the cup. Mortality was assessed 3 days after treatment of the plants.
by evaluation of the test shown in paragraph III.).

[1] = tested on: Green Peach Aphid (Myzus persicae); details: 120 h, pepper leaves dipped, determined after 5 days, read-out: mortality in comparison with untreated controls
Method: (§1) Pepper plants in the 2nd leaf-pair stage (variety ‘California Wonder’) are infested with approximately 40 laboratory-reared aphids by placing infested leaf sections on top of the test plants. The leaf sections are removed after 24 hours. The leaves of the intact plants are dipped into gradient solutions of the test compound. Aphid mortality on the treated plants, relative to mortality on check plants, is determined after 5 days.

[2] = tested on: Cotton aphid (Aphis gossypi); details: 120 h, cotton cotyledons dipped, determined after 5 days, read-out: mortality in comparison with untreated controls
Method: as §1, with “Cotton” for “Pepper”, “cotyledon” for “2nd leaf-pair”, “‘Delta Pine’)” for “‘California Wonder’)”, “100” for “40”, “cotyledons” for “leaves”

[3] = 72 h, 300 ppm, cotton cotyledons dipped, assessed 3 days after treatment, read-out: mortality in comparison with untreated controls
[4] = in Gossypium hirsutum, comparative example 1, test of paragraph III, read-out: mortality in comparison with untreated controls [%]
[5] = in Gossypium hirsutum, concentration 300 ppm, comparative example 1, test of paragraph III, read-out: mortality in comparison with untreated controls [%]

C#CCN1CCSC1=NC(Cc1cc(C)cc(C)c1)c1cccc(Cl)c1Cl (stereo not drawn) [Example 1, 1-(3-prop-2-ynyl-thiazolidin-2-ylidene)amino-1-(2,3-dichlorophenyl)-2-(3,5-dimethylphenyl)-ethane]
mortality at 300 ppm (Silverleaf Whitefly; [3]): > 70%
mortality at 10 ppm (Silverleaf Whitefly; [4]): 100%
mortality at 100 ppm (Silverleaf Whitefly; [4]): 100%
mortality at 300 ppm (Silverleaf Whitefly; [5]): 100%
mortality at 300 ppm [1]: > 70%
mortality at 300 ppm [2]: > 70%

Cc1cc(C)cc(CC(N=C2SCCN2CCCOC2CCCCO2)c2cccc(Cl)c2Cl)c1 (stereo not drawn) [Example 2, 1-{3-[3-(tetrahydropyran-2-yloxy)propyl]thiazolidin-2-ylidene}amino-1-(2,3-dichlorophenyl)-2-(3,5-dimethylphenyl)-ethane]
mortality at 300 ppm (Silverleaf Whitefly; [3]): > 70%
mortality at 300 ppm [1]: > 70%
mortality at 300 ppm [2]: > 70%

Cc1cc(C)cc(CC(N=C2SCCN2C2=NCCS2)c2cccc3c2OC(F)(F)O3)c1 (stereo not drawn) [Example 3, 1-(4,5,4′,5′-tetrahydro-[2,3]-bithiazolyl-2′-ylidene)amino-1-(2,2-difluoro-benzo[1,3]dioxol-4-yl)-2-(3,5-dimethyl-phenyl)-ethane]
mortality at 300 ppm (Silverleaf Whitefly; [3]): > 70%
mortality at 300 ppm [1]: > 70%
mortality at 300 ppm [2]: > 70%

Cc1cc(C)cc(CC(N=C2SCCN2C(=S)Nc2cccc(C(F)(F)F)c2)c2cccc(Cl)c2Cl)c1 (stereo not drawn) [Example 4, 2-[1-(2,3-dichlorophenyl)-2-(3,5-dimethylphenyl)ethylimino]-thiazolidine-3-carbothioic acid (3-trifluoromethylphenyl)amide]
mortality at 300 ppm (Silverleaf Whitefly; [3]): > 70%
mortality at 10 ppm (Silverleaf Whitefly; [4]): 50%
mortality at 100 ppm (Silverleaf Whitefly; [4]): 100%
mortality at 300 ppm (Silverleaf Whitefly; [5]): 100%
mortality at 300 ppm [1]: > 70%
mortality at 300 ppm [2]: > 70%

Cc1cc(C)cc(CC(NC2=NCCS2)c2cccc(Cl)c2Cl)c1 (stereo not drawn) [compound C.3, reference compound]
mortality at 10 ppm (Silverleaf Whitefly; [4]): 0%
mortality at 100 ppm (Silverleaf Whitefly; [4]): 100%
mortality at 300 ppm (Silverleaf Whitefly; [5]): 100%
